# Measurements reported in the NIST ThermoML archive (doi:10.1016/j.fluid.2010.02.030).
# Numbers after ± are expanded uncertainties.
# Details: Liquid, Ebulliometric method (Recirculating still)
SMILES,vapor or sublimation pressure (328.08 K) [kPa],vapor or sublimation pressure (336.1 K) [kPa],vapor or sublimation pressure (343.41 K) [kPa],vapor or sublimation pressure (350.44 K) [kPa],vapor or sublimation pressure (355.65 K) [kPa],vapor or sublimation pressure (360.57 K) [kPa],vapor or sublimation pressure (364.39 K) [kPa],vapor or sublimation pressure (368.05 K) [kPa],vapor or sublimation pressure (371.04 K) [kPa],vapor or sublimation pressure (383.15 K) [kPa],vapor or sublimation pressure (387.74 K) [kPa],vapor or sublimation pressure (400.11 K) [kPa],vapor or sublimation pressure (408.87 K) [kPa],vapor or sublimation pressure (416.75 K) [kPa],vapor or sublimation pressure (422.84 K) [kPa],vapor or sublimation pressure (428.53 K) [kPa],vapor or sublimation pressure (433.42 K) [kPa],vapor or sublimation pressure (437.83 K) [kPa],vapor or sublimation pressure (442.22 K) [kPa]
CCCCS [1-butanethiol],23.1 ± 0.4,31.4 ± 0.4,40.9 ± 0.4,52.1 ± 0.4,61.9 ± 0.4,72.6 ± 0.4,81.9 ± 0.4,91.6 ± 0.4,100.5 ± 0.5,,,,,,,,,,
"Cc1ccc(C)c(C)c1 [1,2,4-trimethylbenzene]",,,,,,,,,,16.9 ± 0.4,20.1 ± 0.4,30.3 ± 0.4,39.8 ± 0.4,50.3 ± 0.4,60 ± 0.4,70.3 ± 0.4,80.3 ± 0.4,90.4 ± 0.4,101.4 ± 0.4
